From patent EP1105395B1, “PHOTOCYCLIZED RAPAMYCINS” (priority 1998, dated 2000)
Converted amounts (≈) assume the structure as drawn. Like-named read-outs stand apart in the source and are kept apart here.

Tests used:
Assay in all cases: Antifungal activity, microtiter broth dilution MIC
Assay type in all cases: cell-based
Saccharomyces cerevisiae = Saccharomyces cerevisiae ID ATCC 2601, 35 °C, 24-48 hours
Procedure: (§1) Antifungal activity for the compounds of this invention was established by evaluating a representative compound of this invention (Compound I) against several strains of fungi. Briefly the following procedure was used to evaluate such activity. A 96 U-bottom microtiter plate was filled (50 µl/well) with RPMI 1640. The compounds to be evaluated were placed in appropriate wells, and serial diluted in successive wells to provide 11 dilutions. The concentrations ranged from 64 through 0.06 µg/ml. An adjusted inoculum of fungi (50 µl) was added to each well and the plates were incubated at 35 °C for 24-48 hours. […]

Candida pseudotropicalis = Candida pseudotropicalis ID ATCC 28838, 35 °C, 24-48 hours
Procedure: as §1

Candida tropicalis = conditions: 35 °C, 24-48 hours
Procedure: as §1

Candida lusitaniae = Candida lusitaniae ID 94-3, 35 °C, 24-48 hours
Procedure: as §1

Aspergillus niger = Aspergillus niger ID S-430, 35 °C, 24-48 hours
Procedure: as §1

Candida albicans = conditions: 35 °C, 24-48 hours
Procedure: as §1

Candida parapsilosis = conditions: 35 °C, 24-48 hours
Procedure: as §1

Candida rugosa = Candida rugosa ID 94-10, 35 °C, 24-48 hours
Procedure: as §1

Cryptococcus neoformans = Cryptococcus neoformans ID ATCC 90112, 35 °C, 24-48 hours
Procedure: as §1

Candida zeylanoided = Candida zeylanoided ID 94-15, 35 °C, 24-48 hours
Procedure: as §1

[1] = system: Filobasidiella neoformans; conditions: Filobasidiella neoformans ID ATCC 7472, 35 °C, 24-48 hours
Procedure: as §1

Aspergillus fumigatus = Aspergillus fumigatus ID ATCC 26933, 35 °C, 24-48 hours
Procedure: as §1

Candida glabrata = Candida glabrata ID ATCC 90030, 35 °C, 24-48 hours
Procedure: as §1

Candida krussii = Candida krussii ID 94-2, 35 °C, 24-48 hours
Procedure: as §1

Aspergillus flavus = Aspergillus flavus ID ATCC 12963, 35 °C, 24-48 hours
Procedure: as §1

Clc1ccc(COC(Cn2ccnc2)c2ccc(Cl)cc2Cl)c(Cl)c1 (centres unmarked) [Miconazole]
MIC (Saccharomyces cerevisiae; ATCC2601, read-out: MIC): ≤ 0.12 µg/mL
MIC (Candida pseudotropicalis; Kluyveromyces marxianus, ATCC28838, read-out: MIC): ≤ 0.12 µg/mL
MIC (Candida tropicalis; Candida tropicalis ID 94-13): 4 µg/mL (≈ 9.61 µM)
MIC (Candida tropicalis; Candida tropicalis ID 94-14, read-out: MIC): 4 µg/mL (≈ 9.61 µM)
MIC (Candida lusitaniae; Clavispora lusitaniae, read-out: MIC): ≤ 0.12 µg/mL
MIC (Aspergillus niger; read-out: MIC): 4 µg/mL (≈ 9.61 µM)
MIC (Candida albicans; Candida albicans, ATCC90028, Candida albicans ID ATCC 90028, read-out: MIC): 0.5 µg/mL (≈ 1.2 µM)
MIC (Candida albicans; Candida albicans, Candida albicans ID 94-1, read-out: MIC): 8 µg/mL (≈ 19.2 µM)
MIC (Candida albicans; Candida albicans, Candida albicans ID 1063, read-out: MIC): 1 µg/mL (≈ 2.4 µM)
MIC (Candida albicans; Candida albicans, Candida albicans ID 1117, read-out: MIC): 1 µg/mL (≈ 2.4 µM)
MIC (Candida albicans; Candida albicans, Candida albicans ID C-83, read-out: MIC): 8 µg/mL (≈ 19.2 µM)
MIC (Candida parapsilosis; Lodderomyces parapsilosis, ATCC90018, Candida parapsilosis ID ATCC 90018, read-out: MIC): ≤ 0.12 µg/mL
MIC (Candida parapsilosis; Lodderomyces parapsilosis, Candida parapsilosis ID 94-8, read-out: MIC): 0.25 µg/mL (≈ 0.601 µM)
MIC (Candida parapsilosis; Lodderomyces parapsilosis, Candida parapsilosis ID 94-9, read-out: MIC): 0.5 µg/mL (≈ 1.2 µM)
MIC (Candida rugosa; Diutina rugosa, read-out: MIC): ≤ 0.12 µg/mL
MIC (Cryptococcus neoformans; ATCC90112, read-out: MIC): ≤ 0.12 µg/mL
MIC (Candida zeylanoided; read-out: MIC): 0.25 µg/mL (≈ 0.601 µM)
MIC ([1]; Cryptococcus neoformans, ATCC7472, read-out: MIC): 0.25 µg/mL (≈ 0.601 µM)
MIC (Aspergillus fumigatus; ATCC26933, read-out: MIC): 1 µg/mL (≈ 2.4 µM)
MIC (Candida glabrata; Nakaseomyces glabratus, ATCC90030, read-out: MIC): ≤ 0.12 µg/mL
MIC (Candida krussii; read-out: MIC): 2 µg/mL (≈ 4.81 µM)
MIC (Aspergillus flavus; ATCC12963, read-out: MIC): 0.5 µg/mL (≈ 1.2 µM)

C[C@@H]1[C@H](O)[C@@H](C)/C=C/C=C/CC/C=C/C=C/C=C/C=C/C(O[C@H]2O[C@H](C)[C@@H](O)[C@H](N)[C@@H]2O)CC2O[C@](O)(CC(O)C(O)CCC(O)CC(O)CC(O)CC(=O)O[C@H]1C)CC(O)C2C(=O)O (some centres unmarked) [Nystatin]
MIC (Saccharomyces cerevisiae): 2 µg/mL (≈ 2.16 µM)
MIC (Candida pseudotropicalis): 1 µg/mL (≈ 1.08 µM)
MIC (Candida tropicalis; Candida tropicalis ID 94-13): 1 µg/mL (≈ 1.08 µM)
MIC (Candida tropicalis; Candida tropicalis ID 94-14): 2 µg/mL (≈ 2.16 µM)
MIC (Candida lusitaniae): 1 µg/mL (≈ 1.08 µM)
MIC (Aspergillus niger): 4 µg/mL (≈ 4.32 µM)
MIC (Candida albicans; Candida albicans ID 94-1): 2.0 µg/mL (≈ 2.16 µM)
MIC (Candida albicans; Candida albicans ID 1063): 2 µg/mL (≈ 2.16 µM)
MIC (Candida albicans; Candida albicans ID 1117): 1 µg/mL (≈ 1.08 µM)
MIC (Candida albicans; Candida albicans ID ATCC 90028): 1 µg/mL (≈ 1.08 µM)
MIC (Candida albicans; Candida albicans ID C-83): 2 µg/mL (≈ 2.16 µM)
MIC (Candida parapsilosis; Candida parapsilosis ID 94-8): 1 µg/mL (≈ 1.08 µM)
MIC (Candida parapsilosis; Candida parapsilosis ID 94-9): 1 µg/mL (≈ 1.08 µM)
MIC (Candida parapsilosis; Candida parapsilosis ID ATCC 90018): 1 µg/mL (≈ 1.08 µM)
MIC (Candida rugosa): 2 µg/mL (≈ 2.16 µM)
MIC (Cryptococcus neoformans): 0.5 µg/mL (≈ 0.54 µM)
MIC (Candida zeylanoided): 1 µg/mL (≈ 1.08 µM)
MIC [1]: 0.5 µg/mL (≈ 0.54 µM)
MIC (Aspergillus fumigatus): 1 µg/mL (≈ 1.08 µM)
MIC (Candida glabrata): 1 µg/mL (≈ 1.08 µM)
MIC (Candida krussii): 2 µg/mL (≈ 2.16 µM)
MIC (Aspergillus flavus): ≥16 µg/mL
